In article PMC11576293, “New series of 4,6-diaryl pyrimidines: facile synthesis and antiproliferative activity as dual EGFR/VEGFR-2 inhibitors” (Frontiers in Chemistry, 2024):

What was measured:
OVCAR-8 = experiment: NCI-60 single-dose screen; assay type: cell-based; conditions: Homo sapiens, single dose 10 µM, '-' = no inhibition, read-out: % Growth Inhibition
Protocol: (§1) The National Cancer Institute’s Developmental Therapeutic Program (www.dtp.nci.nih.gov) has tested compounds 9–29 (except compounds 21 and 22) against 60 cancer cell lines from nine types (leukemia, lung, colon, CNS, melanoma, ovarian, renal, prostate, and breast cancer) at a single dose (10 μM) ([El-Sherief et al., 2018]). […] The most sensitive cells included leukemia (SR, K-562, and MOLT-4), lung (NCI-H522, […], and EKVX), breast (MCF-7 and T-47D), colon (HCT-15 and HT-29), and ovarian (NCI/ADR-RES).
(§2) The National Cancer Institute’s Developmental Therapeutic Program (www.dtp.nci.nih.gov) evaluated compounds 9–29 (excluding 21 and 22) against 60 cancer cell lines from nine categories (leukemia, lung, colon, CNS, melanoma, ovarian, renal, prostate, and breast cancer) at a single dose (10 μM) ([El-Sherief et al., 2018]). See Supplementary Material A1 for more details.

A498 = experiment: NCI-60 single-dose screen; assay type: cell-based; conditions: Homo sapiens, single dose 10 µM, '-' = no inhibition, read-out: % Growth Inhibition
Protocol: as §1, §2

PC-3 = experiment: NCI-60 single-dose screen; assay type: cell-based; conditions: Homo sapiens, single dose 10 µM, '-' = no inhibition, read-out: % Growth Inhibition
Protocol: as §1, §2

BT-549 = experiment: NCI-60 single-dose screen; assay type: cell-based; conditions: Homo sapiens, single dose 10 µM, '-' = no inhibition, read-out: % Growth Inhibition
Protocol: as §1, §2

SF-539 = experiment: NCI-60 single-dose screen; assay type: cell-based; conditions: Homo sapiens, single dose 10 µM, '-' = no inhibition, read-out: % Growth Inhibition
Protocol: as §1, §2

NCI-H322M = experiment: NCI-60 single-dose screen; assay type: cell-based; conditions: Homo sapiens, single dose 10 µM, '-' = no inhibition, read-out: % Growth Inhibition
Protocol: as §1, §2

SR = experiment: NCI-60 single-dose screen; assay type: cell-based; conditions: Homo sapiens, single dose 10 µM, '-' = no inhibition, read-out: % Growth Inhibition
Protocol: as §1, §2

TK-10 = experiment: NCI-60 single-dose screen; assay type: cell-based; conditions: Homo sapiens, single dose 10 µM, '-' = no inhibition, read-out: % Growth Inhibition
Protocol: as §1, §2

HL-60(TB) = experiment: NCI-60 single-dose screen; assay type: cell-based; conditions: Homo sapiens, single dose 10 µM, '-' = no inhibition, read-out: % Growth Inhibition
Protocol: as §1, §2

SF-268 = experiment: NCI-60 single-dose screen; assay type: cell-based; conditions: Homo sapiens, single dose 10 µM, '-' = no inhibition, read-out: % Growth Inhibition
Protocol: as §1, §2

IGROV1 = experiment: NCI-60 single-dose screen; assay type: cell-based; conditions: Homo sapiens, IGROV-1, single dose 10 µM, '-' = no inhibition, read-out: % Growth Inhibition
Protocol: as §1, §2

RPMI-8226 = experiment: NCI-60 single-dose screen; assay type: cell-based; conditions: Homo sapiens, single dose 10 µM, '-' = no inhibition, read-out: % Growth Inhibition
Protocol: as §1, §2

MDA-MB-435 = experiment: NCI-60 single-dose screen; assay type: cell-based; conditions: Homo sapiens, single dose 10 µM, '-' = no inhibition, read-out: % Growth Inhibition
Protocol: as §1, §2

NCI-H23 = experiment: NCI-60 single-dose screen; assay type: cell-based; conditions: Homo sapiens, single dose 10 µM, '-' = no inhibition, read-out: % Growth Inhibition
Protocol: as §1, §2

SF-295 = experiment: NCI-60 single-dose screen; assay type: cell-based; conditions: Homo sapiens, single dose 10 µM, '-' = no inhibition, read-out: % Growth Inhibition
Protocol: as §1, §2

NCI-H460 = experiment: NCI-60 single-dose screen; assay type: cell-based; conditions: Homo sapiens, single dose 10 µM, '-' = no inhibition, read-out: % Growth Inhibition
Protocol: as §1, §2

ACHN 1 = experiment: NCI-60 single-dose screen; assay type: cell-based; conditions: Homo sapiens, single dose 10 µM, '-' = no inhibition, read-out: % Growth Inhibition
Protocol: as §1, §2

SK-OV-3 = experiment: NCI-60 single-dose screen; assay type: cell-based; conditions: Homo sapiens, single dose 10 µM, '-' = no inhibition, read-out: % Growth Inhibition
Protocol: as §1, §2

CAKI-1 = experiment: NCI-60 single-dose screen; assay type: cell-based; conditions: Homo sapiens, single dose 10 µM, '-' = no inhibition, read-out: % Growth Inhibition
Protocol: as §1, §2

EKVX = experiment: NCI-60 single-dose screen; assay type: cell-based; conditions: Homo sapiens, single dose 10 µM, '-' = no inhibition, read-out: % Growth Inhibition
Protocol: as §1, §2

K-562 = experiment: NCI-60 single-dose screen; assay type: cell-based; conditions: Homo sapiens, K562, single dose 10 µM, '-' = no inhibition, read-out: % Growth Inhibition
Protocol: as §1, §2

HCT-15 = experiment: NCI-60 single-dose screen; assay type: cell-based; conditions: Homo sapiens, single dose 10 µM, '-' = no inhibition, read-out: % Growth Inhibition
Protocol: as §1, §2

NCI/ADR-RES = experiment: NCI-60 single-dose screen; assay type: cell-based; conditions: Homo sapiens, single dose 10 µM, '-' = no inhibition, read-out: % Growth Inhibition
Protocol: as §1, §2

MCF7 = experiment: NCI-60 single-dose screen; assay type: cell-based; conditions: Homo sapiens, single dose 10 µM, '-' = no inhibition, read-out: % Growth Inhibition
Protocol: as §1, §2

SNB-75 = experiment: NCI-60 single-dose screen; assay type: cell-based; conditions: Homo sapiens, single dose 10 µM, '-' = no inhibition, read-out: % Growth Inhibition
Protocol: as §1, §2

HT29 = experiment: NCI-60 single-dose screen; assay type: cell-based; conditions: Homo sapiens, HT-29, single dose 10 µM, '-' = no inhibition, read-out: % Growth Inhibition
Protocol: as §1, §2

LOX IMVI = experiment: NCI-60 single-dose screen; assay type: cell-based; conditions: Homo sapiens, single dose 10 µM, '-' = no inhibition, read-out: % Growth Inhibition
Protocol: as §1, §2

RXF 393 = experiment: NCI-60 single-dose screen; assay type: cell-based; conditions: Homo sapiens, single dose 10 µM, '-' = no inhibition, read-out: % Growth Inhibition
Protocol: as §1, §2

UACC-257 = experiment: NCI-60 single-dose screen; assay type: cell-based; conditions: Homo sapiens, single dose 10 µM, '-' = no inhibition, read-out: % Growth Inhibition
Protocol: as §1, §2

CCRF-CEM = experiment: NCI-60 single-dose screen; assay type: cell-based; conditions: Homo sapiens, single dose 10 µM, '-' = no inhibition, read-out: % Growth Inhibition
Protocol: as §1, §2

NCI-H522 = experiment: NCI-60 single-dose screen; assay type: cell-based; conditions: Homo sapiens, single dose 10 µM, '-' = no inhibition, read-out: % Growth Inhibition
Protocol: as §1, §2

MDA-MB231/ATCC = experiment: NCI-60 single-dose screen; assay type: cell-based; conditions: Homo sapiens, MDA-MB-231, single dose 10 µM, '-' = no inhibition, read-out: % Growth Inhibition
Protocol: as §1, §2

MOLT-4 = experiment: NCI-60 single-dose screen; assay type: cell-based; conditions: Homo sapiens, single dose 10 µM, '-' = no inhibition, read-out: % Growth Inhibition
Protocol: as §1, §2

KM12 = experiment: NCI-60 single-dose screen; assay type: cell-based; conditions: Homo sapiens, single dose 10 µM, '-' = no inhibition, read-out: % Growth Inhibition
Protocol: as §1, §2

SN12C = experiment: NCI-60 single-dose screen; assay type: cell-based; conditions: Homo sapiens, single dose 10 µM, '-' = no inhibition, read-out: % Growth Inhibition
Protocol: as §1, §2

DU-145 = experiment: NCI-60 single-dose screen; assay type: cell-based; conditions: Homo sapiens, single dose 10 µM, '-' = no inhibition, read-out: % Growth Inhibition
Protocol: as §1, §2

OVCAR-3 = experiment: NCI-60 single-dose screen; assay type: cell-based; conditions: Homo sapiens, single dose 10 µM, '-' = no inhibition, read-out: % Growth Inhibition
Protocol: as §1, §2

SK-MEL-28 = experiment: NCI-60 single-dose screen; assay type: cell-based; conditions: Homo sapiens, single dose 10 µM, '-' = no inhibition, read-out: % Growth Inhibition
Protocol: as §1, §2

UO-31 = experiment: NCI-60 single-dose screen; assay type: cell-based; conditions: Homo sapiens, single dose 10 µM, '-' = no inhibition, read-out: % Growth Inhibition
Protocol: as §1, §2

SW-620 = experiment: NCI-60 single-dose screen; assay type: cell-based; conditions: Homo sapiens, single dose 10 µM, '-' = no inhibition, read-out: % Growth Inhibition
Protocol: as §1, §2

SNB-19 = experiment: NCI-60 single-dose screen; assay type: cell-based; conditions: Homo sapiens, single dose 10 µM, '-' = no inhibition, read-out: % Growth Inhibition
Protocol: as §1, §2

M14 = experiment: NCI-60 single-dose screen; assay type: cell-based; conditions: Homo sapiens, single dose 10 µM, '-' = no inhibition, read-out: % Growth Inhibition
Protocol: as §1, §2

HCC-2998 = experiment: NCI-60 single-dose screen; assay type: cell-based; conditions: Homo sapiens, single dose 10 µM, '-' = no inhibition, read-out: % Growth Inhibition
Protocol: as §1, §2

UACC-62 = experiment: NCI-60 single-dose screen; assay type: cell-based; conditions: Homo sapiens, single dose 10 µM, '-' = no inhibition, read-out: % Growth Inhibition
Protocol: as §1, §2

MDA-MB-468 = experiment: NCI-60 single-dose screen; assay type: cell-based; conditions: Homo sapiens, single dose 10 µM, '-' = no inhibition, read-out: % Growth Inhibition
Protocol: as §1, §2

SK-MEL-2 = experiment: NCI-60 single-dose screen; assay type: cell-based; conditions: Homo sapiens, single dose 10 µM, '-' = no inhibition, read-out: % Growth Inhibition
Protocol: as §1, §2

MALME-3M = experiment: NCI-60 single-dose screen; assay type: cell-based; conditions: Homo sapiens, single dose 10 µM, '-' = no inhibition, read-out: % Growth Inhibition
Protocol: as §1, §2

With COc1ccc(-c2cc(-c3ccc(Cl)cc3)nc(SC(C)C)n2)cc1 [Compound 12, 4-(4-Chlorophenyl)-2-(isopropylthio)-6-(4-methoxyphenyl)pyrimidine] the inhibition at 10 µM (OVCAR-8) was 11.3%, the inhibition at 10 µM (A498) was < 0% and the inhibition at 10 µM (PC-3) was 2.88%. For the same molecule, the inhibition at 10 µM (BT-549) was 2.74%, the inhibition at 10 µM (SF-539) was 6.88% and the inhibition at 10 µM (NCI-H322M) was 4.22%. The inhibition at 10 µM (SR) was 47.1%, the inhibition at 10 µM (TK-10) was < 0% and the inhibition at 10 µM (HL-60(TB)) was 32.6%. For the same molecule, the inhibition at 10 µM (SF-268) was < 0%, the inhibition at 10 µM (IGROV1) was < 0% and the inhibition at 10 µM (RPMI-8226) was 26.7%. It also gave an inhibition at 10 µM (MDA-MB-435) of 8.92%, an inhibition at 10 µM (NCI-H23) of 10.7% and an inhibition at 10 µM (SF-295) of 4.52%. The inhibition at 10 µM (NCI-H460) was 7.21%, the inhibition at 10 µM (ACHN 1) was < 0% and the inhibition at 10 µM (SK-OV-3) was < 0%. For the same molecule, the inhibition at 10 µM (CAKI-1) was 14.1%, the inhibition at 10 µM (EKVX) was 16.8% and the inhibition at 10 µM (K-562) was 30.9%. The inhibition at 10 µM (HCT-15) was 38.7%, the inhibition at 10 µM (NCI/ADR-RES) was 11.2% and the inhibition at 10 µM (MCF7) was 28.8%. For the same molecule, the inhibition at 10 µM (SNB-75) was < 0%, the inhibition at 10 µM (HT29) was 29.2% and the inhibition at 10 µM (LOX IMVI) was 13.6%. For the same molecule, the inhibition at 10 µM (RXF 393) was 26.4%, the inhibition at 10 µM (UACC-257) was 4.1% and the inhibition at 10 µM (CCRF-CEM) was 24.1%. For the same molecule, the inhibition at 10 µM (NCI-H522) was 21.6%, the inhibition at 10 µM (MDA-MB231/ATCC) was 4.87% and the inhibition at 10 µM (MOLT-4) was 29.9%. The inhibition at 10 µM (KM12) was 9.45%, the inhibition at 10 µM (SN12C) was 19.8% and the inhibition at 10 µM (DU-145) was 14.7%. The inhibition at 10 µM (OVCAR-3) was < 0%, the inhibition at 10 µM (SK-MEL-28) was < 0% and the inhibition at 10 µM (UO-31) was 15.7%. The inhibition at 10 µM (SW-620) was 5.57%, the inhibition at 10 µM (SNB-19) was 1.49% and the inhibition at 10 µM (M14) was 8.46%. The inhibition at 10 µM (HCC-2998) was 1.06%, the inhibition at 10 µM (UACC-62) was 19.1% and the inhibition at 10 µM (MDA-MB-468) was 35.1%. For the same molecule, the inhibition at 10 µM (SK-MEL-2) was 19.5%, the inhibition at 10 µM (MALME-3M) was 1.51% and the melting point was 198 to 201 °C.
